Laboratory results taken from the NIST ThermoML archive (doi:10.1021/je100083w).
Numbers after ± are expanded uncertainties.

Settings: Liquid, Bellows volumetry

O [water]
Settings	specific volume [m3/kg]
253.56 K, 298200 kPa	0.0008917 ± 7e-07
253.56 K, 325300 kPa	0.0008857 ± 7e-07
253.56 K, 349800 kPa	0.0008804 ± 7e-07
253.58 K, 223600 kPa	0.0009109 ± 7e-07
253.58 K, 223700 kPa	0.000911 ± 7e-07
253.58 K, 273300 kPa	0.0008978 ± 7e-07
253.58 K, 273600 kPa	0.0008977 ± 7e-07
253.58 K, 323500 kPa	0.000886 ± 7e-07
253.6 K, 249400 kPa	0.0009039 ± 7e-07
253.6 K, 298400 kPa	0.0008918 ± 7e-07
253.61 K, 248900 kPa	0.0009041 ± 7e-07
253.63 K, 349100 kPa	0.0008803 ± 7e-07
253.64 K, 223700 kPa	0.000911 ± 7e-07
253.64 K, 248300 kPa	0.0009041 ± 7e-07
253.65 K, 299600 kPa	0.000891 ± 7e-07
253.67 K, 349800 kPa	0.00088 ± 7e-07
253.68 K, 273300 kPa	0.0008975 ± 7e-07
253.69 K, 325300 kPa	0.0008852 ± 7e-07
253.83 K, 323300 kPa	0.0008861 ± 7e-07
253.83 K, 349500 kPa	0.0008803 ± 7e-07
253.86 K, 273400 kPa	0.0008977 ± 7e-07
253.86 K, 298200 kPa	0.0008918 ± 7e-07
253.87 K, 248600 kPa	0.0009042 ± 7e-07
253.9 K, 223600 kPa	0.000911 ± 7e-07
258.37 K, 198400 kPa	0.00092 ± 7e-07
258.37 K, 248400 kPa	0.0009059 ± 7e-07
258.38 K, 274900 kPa	0.0008992 ± 7e-07
258.4 K, 174000 kPa	0.0009274 ± 7e-07
258.41 K, 223300 kPa	0.0009127 ± 7e-07
258.45 K, 299600 kPa	0.0008933 ± 7e-07
258.46 K, 348900 kPa	0.0008821 ± 7e-07
258.52 K, 323300 kPa	0.0008877 ± 7e-07
258.52 K, 324100 kPa	0.0008879 ± 7e-07
258.53 K, 275300 kPa	0.0008991 ± 7e-07
258.54 K, 249300 kPa	0.0009057 ± 7e-07
258.54 K, 298500 kPa	0.0008935 ± 7e-07
258.55 K, 225000 kPa	0.0009123 ± 7e-07
258.58 K, 174100 kPa	0.0009275 ± 7e-07
258.58 K, 349500 kPa	0.0008815 ± 7e-07
258.59 K, 199300 kPa	0.0009197 ± 7e-07
258.59 K, 223500 kPa	0.0009124 ± 7e-07
258.6 K, 198200 kPa	0.0009199 ± 7e-07
258.6 K, 248400 kPa	0.0009053 ± 7e-07
258.6 K, 273300 kPa	0.0008992 ± 7e-07
258.6 K, 323400 kPa	0.0008873 ± 7e-07
258.6 K, 348800 kPa	0.0008828 ± 7e-07
258.61 K, 198500 kPa	0.0009196 ± 7e-07
258.61 K, 223400 kPa	0.0009121 ± 7e-07
258.61 K, 299200 kPa	0.0008928 ± 7e-07
258.64 K, 223300 kPa	0.0009126 ± 7e-07
258.64 K, 248500 kPa	0.0009056 ± 7e-07
258.65 K, 248300 kPa	0.0009047 ± 7e-07
258.65 K, 274500 kPa	0.0008977 ± 7e-07
258.65 K, 299500 kPa	0.0008914 ± 7e-07
258.66 K, 198400 kPa	0.0009199 ± 7e-07
258.67 K, 174000 kPa	0.0009274 ± 7e-07
258.68 K, 173500 kPa	0.0009277 ± 7e-07
258.68 K, 223300 kPa	0.0009118 ± 7e-07
258.7 K, 174400 kPa	0.0009274 ± 7e-07
258.75 K, 199500 kPa	0.000919 ± 7e-07
258.76 K, 173800 kPa	0.0009274 ± 7e-07
263.51 K, 299100 kPa	0.0008953 ± 7e-07
263.52 K, 350000 kPa	0.0008839 ± 7e-07
263.58 K, 298900 kPa	0.0008957 ± 7e-07
263.6 K, 249800 kPa	0.0009078 ± 7e-07
263.61 K, 248800 kPa	0.0009077 ± 7e-07
263.62 K, 149500 kPa	0.0009371 ± 7e-07
263.64 K, 198700 kPa	0.0009216 ± 7e-07
263.64 K, 248800 kPa	0.0009078 ± 7e-07
263.64 K, 298000 kPa	0.0008957 ± 7e-07
263.64 K, 349900 kPa	0.0008842 ± 7e-07
263.65 K, 198400 kPa	0.0009219 ± 7e-07
263.69 K, 149400 kPa	0.0009369 ± 7e-07
263.69 K, 198600 kPa	0.0009216 ± 7e-07
263.69 K, 349100 kPa	0.0008847 ± 7e-07
263.75 K, 149200 kPa	0.000937 ± 7e-07
268.42 K, 99500 kPa	0.0009558 ± 7e-07
268.47 K, 149200 kPa	0.0009384 ± 7e-07
268.47 K, 248700 kPa	0.0009095 ± 7e-07
268.47 K, 300200 kPa	0.000897 ± 7e-07
268.47 K, 348900 kPa	0.0008867 ± 7e-07
268.48 K, 199300 kPa	0.0009231 ± 7e-07
268.48 K, 298400 kPa	0.0008977 ± 7e-07
268.48 K, 349100 kPa	0.0008861 ± 7e-07
268.51 K, 149700 kPa	0.0009382 ± 7e-07
268.51 K, 249100 kPa	0.0009096 ± 7e-07
268.52 K, 149700 kPa	0.0009382 ± 7e-07
268.52 K, 198400 kPa	0.0009234 ± 7e-07
268.52 K, 249000 kPa	0.0009097 ± 7e-07
268.53 K, 198800 kPa	0.0009234 ± 7e-07
268.55 K, 99400 kPa	0.0009559 ± 7e-07
268.55 K, 298900 kPa	0.0008975 ± 7e-07
268.58 K, 99800 kPa	0.0009557 ± 7e-07
268.6 K, 348900 kPa	0.0008866 ± 7e-07
273.32 K, 69100 kPa	0.0009686 ± 5e-07
273.38 K, 298800 kPa	0.0008991 ± 5e-07
273.4 K, 349400 kPa	0.0008876 ± 5e-07
273.44 K, 149100 kPa	0.0009398 ± 5e-07
273.46 K, 99300 kPa	0.0009569 ± 5e-07
273.48 K, 69100 kPa	0.0009688 ± 5e-07
273.51 K, 199000 kPa	0.0009249 ± 5e-07
273.52 K, 69100 kPa	0.0009682 ± 5e-07
273.52 K, 149000 kPa	0.0009392 ± 5e-07
273.52 K, 249000 kPa	0.0009109 ± 5e-07
273.53 K, 99100 kPa	0.0009564 ± 5e-07
273.55 K, 198900 kPa	0.0009242 ± 5e-07
273.56 K, 98600 kPa	0.0009574 ± 5e-07
273.57 K, 149100 kPa	0.00094 ± 5e-07
273.57 K, 249100 kPa	0.0009117 ± 5e-07
273.63 K, 249300 kPa	0.000912 ± 5e-07
273.65 K, 298900 kPa	0.0008999 ± 5e-07
